Data from PMC2673089 (Journal of pharmaceutical sciences, 2008).

Columns and labels:
MDCK-MDR1 monolayers = experiment: Bidirectional transport and verapamil inhibition across MDCK-MDR1 monolayers; type: in vitro ADME
[1] = system: pooled human liver microsomes; experiment: Metabolism in pooled human liver microsomes; type: in vitro ADME
[2] = system: pooled male Sprague–Dawley rat liver microsomes; experiment: Metabolism in pooled male rat liver microsomes; type: in vitro ADME
human CYP2C19 = human CYP2C19 (Homo sapiens, UniProt P33261); experiment: Metabolism by recombinant human CYP2C19 Supersomes; type: in vitro ADME
human CYP2E1 = human CYP2E1 (Homo sapiens, UniProt P05181); experiment: Metabolism by recombinant human CYP2E1 Supersomes; type: in vitro ADME
rat CYP2C11 = biological target: T1, rat CYP2C11 (Rattus norvegicus, UniProt P08683); experiment: Metabolism by recombinant rat CYP2C11 Supersomes; type: in vitro ADME
T1 sequence (P08683 1-500): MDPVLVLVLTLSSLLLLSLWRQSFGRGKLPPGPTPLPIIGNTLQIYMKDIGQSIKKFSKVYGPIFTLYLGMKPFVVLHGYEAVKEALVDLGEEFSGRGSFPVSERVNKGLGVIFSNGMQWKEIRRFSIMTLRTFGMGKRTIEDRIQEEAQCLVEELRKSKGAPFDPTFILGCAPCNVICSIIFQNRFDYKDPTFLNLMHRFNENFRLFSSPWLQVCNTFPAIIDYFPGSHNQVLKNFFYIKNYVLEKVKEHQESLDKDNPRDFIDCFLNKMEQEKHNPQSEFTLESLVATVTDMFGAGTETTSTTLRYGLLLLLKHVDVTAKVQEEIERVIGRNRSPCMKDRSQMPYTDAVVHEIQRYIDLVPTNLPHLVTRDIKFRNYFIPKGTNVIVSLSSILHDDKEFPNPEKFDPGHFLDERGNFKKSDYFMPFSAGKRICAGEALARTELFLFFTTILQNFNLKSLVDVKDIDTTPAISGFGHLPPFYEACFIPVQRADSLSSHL

rat CYP2D1 = biological target: T2, rat CYP2D1 (Rattus norvegicus, UniProt P10633); experiment: Metabolism by recombinant rat CYP2D1 Supersomes; type: in vitro ADME
T2 sequence (P10633 1-504): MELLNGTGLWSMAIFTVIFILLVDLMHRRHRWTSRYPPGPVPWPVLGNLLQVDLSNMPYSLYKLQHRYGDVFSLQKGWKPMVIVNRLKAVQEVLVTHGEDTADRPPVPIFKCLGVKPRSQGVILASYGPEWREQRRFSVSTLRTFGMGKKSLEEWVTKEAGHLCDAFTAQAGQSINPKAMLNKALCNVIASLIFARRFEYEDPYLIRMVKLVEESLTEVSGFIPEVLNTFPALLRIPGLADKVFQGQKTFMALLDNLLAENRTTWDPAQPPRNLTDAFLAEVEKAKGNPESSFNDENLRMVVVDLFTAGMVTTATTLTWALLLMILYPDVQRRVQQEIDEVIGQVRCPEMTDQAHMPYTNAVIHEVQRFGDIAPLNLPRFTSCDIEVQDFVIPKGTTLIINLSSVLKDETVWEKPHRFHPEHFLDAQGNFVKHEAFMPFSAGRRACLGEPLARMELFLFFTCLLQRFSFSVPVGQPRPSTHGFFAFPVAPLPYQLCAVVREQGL

rat CYP3A1 = biological target: T3, rat CYP3A1 (Rattus norvegicus, UniProt P04800); experiment: Metabolism by recombinant rat CYP3A1 Supersomes; type: in vitro ADME
T3 sequence (P04800 1-504): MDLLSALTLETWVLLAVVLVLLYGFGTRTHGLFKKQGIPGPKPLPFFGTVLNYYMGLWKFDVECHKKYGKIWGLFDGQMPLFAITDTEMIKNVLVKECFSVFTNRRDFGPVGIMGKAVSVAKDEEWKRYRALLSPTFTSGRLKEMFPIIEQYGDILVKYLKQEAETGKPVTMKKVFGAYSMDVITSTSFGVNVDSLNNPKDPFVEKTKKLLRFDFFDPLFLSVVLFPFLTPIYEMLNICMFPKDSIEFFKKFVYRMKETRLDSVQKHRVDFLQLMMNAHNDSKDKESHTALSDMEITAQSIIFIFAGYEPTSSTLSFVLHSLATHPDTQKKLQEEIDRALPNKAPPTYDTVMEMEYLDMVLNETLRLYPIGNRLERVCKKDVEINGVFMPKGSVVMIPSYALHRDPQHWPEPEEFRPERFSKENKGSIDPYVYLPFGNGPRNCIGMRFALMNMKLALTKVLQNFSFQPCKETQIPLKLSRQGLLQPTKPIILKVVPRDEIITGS

[3] = Pharmacokinetics and brain uptake after i.v. dosing; type: in vivo, male Sprague–Dawley rats; conditions: for AUC0–1440 min (plasma): noncompartmental analysis
DAT = conditions: read-out: DAT Ki; mean ± SEM; cited from earlier work
SERT = conditions: read-out: SERT Ki; mean ± SEM; cited from earlier work
NET = conditions: read-out: NET Ki; mean ± SEM; cited from earlier work
muscarinic M1 receptors = conditions: read-out: M1 Ki; mean ± SEM; cited from earlier work
histamine H1 receptors = conditions: read-out: H1 Ki; mean ± SEM; cited from earlier work
DA uptake = conditions: read-out: DA Uptake IC50; mean ± SEM; cited from earlier work
[4] = MDCK-MDR1, 0.1 mM, absence of verapamil, mean ± SD (n = 3)
[5] = population PK estimate (% CV), i.v. 5 and 10 mg/kg combined, n = 54 rats

human CYP2E1, sequence (P05181 whole entry): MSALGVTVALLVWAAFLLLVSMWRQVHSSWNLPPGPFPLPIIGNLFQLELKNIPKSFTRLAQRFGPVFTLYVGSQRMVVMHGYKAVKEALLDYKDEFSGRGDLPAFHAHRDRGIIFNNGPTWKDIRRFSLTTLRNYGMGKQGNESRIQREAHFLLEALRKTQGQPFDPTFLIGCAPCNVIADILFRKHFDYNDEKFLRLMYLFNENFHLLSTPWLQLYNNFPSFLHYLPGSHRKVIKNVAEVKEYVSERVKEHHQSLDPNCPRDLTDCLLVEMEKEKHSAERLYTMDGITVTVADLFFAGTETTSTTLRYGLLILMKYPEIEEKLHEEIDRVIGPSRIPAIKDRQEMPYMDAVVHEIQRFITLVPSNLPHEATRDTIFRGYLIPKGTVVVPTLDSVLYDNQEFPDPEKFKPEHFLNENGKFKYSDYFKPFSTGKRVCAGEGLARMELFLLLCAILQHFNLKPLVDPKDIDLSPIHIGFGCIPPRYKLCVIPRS
human CYP2C19, sequence (P33261 whole entry): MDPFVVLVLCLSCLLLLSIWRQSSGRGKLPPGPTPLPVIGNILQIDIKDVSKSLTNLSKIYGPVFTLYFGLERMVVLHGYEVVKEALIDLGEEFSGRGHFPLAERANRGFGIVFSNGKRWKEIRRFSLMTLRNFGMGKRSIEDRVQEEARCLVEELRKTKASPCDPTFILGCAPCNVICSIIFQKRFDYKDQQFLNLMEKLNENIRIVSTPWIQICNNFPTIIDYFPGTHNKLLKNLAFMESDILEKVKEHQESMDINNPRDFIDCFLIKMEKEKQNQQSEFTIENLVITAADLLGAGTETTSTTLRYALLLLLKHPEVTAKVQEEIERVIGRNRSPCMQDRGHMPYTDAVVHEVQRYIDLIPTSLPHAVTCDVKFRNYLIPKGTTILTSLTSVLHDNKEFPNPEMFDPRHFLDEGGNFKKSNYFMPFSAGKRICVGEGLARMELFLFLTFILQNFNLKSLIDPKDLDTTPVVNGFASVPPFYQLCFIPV

CC(C)[C@@H](N)CN1C2CCC1CC(OC(c1ccc(F)cc1)c1ccc(F)cc1)C2 (stereo partly drawn) [GA2-50, N-((R)-2″-amino-3″-methyl-n-butyl)-3α-[(bis-4′-fluorophenyl)methoxy]tropane]
Permeability relative to JHW 025 (MDCK-MDR1 monolayers; MDCK-MDR1): around 6.8 fold
Efflux Ratio (MDCK-MDR1 monolayers; MDCK-MDR1, 0.1 mM, Papp(B-A)/Papp(A-B)): 3.4
Papp A-B (MDCK-MDR1 monolayers; [4]): 34.01 ± 2.78 × 10^−6 cm/s
Papp B-A (MDCK-MDR1 monolayers; [4]): 116.97 ± 5.23 × 10^−6 cm/s
Enhancement ratio of A-B transport by verapamil (MDCK-MDR1 monolayers; MDCK-MDR1, verapamil 200 μM): 2.3
P-gp substrate status (MDCK-MDR1 monolayers; polarized transport across MDCK-MDR1 and Caco-2, verapamil-sensitive): substrate for the efflux transporter P-gp
Intrinsic Clearance ([1]; Pooled HLM 0.8 mg/mL, 4 μM, mean ± SD n = 3): 3.17 ± 1.18 microliters per minute per milligram of protein
Intrinsic clearance, fold lower than 4′,4″-diCl BZT ([1]; pooled human liver microsomes, comparator values ref 26): 4.0 fold
Intrinsic Clearance ([2]; Pooled male RLM 0.8 mg/mL, 4 μM, mean ± SD n = 3): 5.96 ± 0.56 microliters per minute per milligram of protein
Intrinsic clearance in pooled male RLM relative to HLM ([2]; higher in rat than in human liver microsomes): 1.9 fold
Intrinsic clearance, fold lower than 4′,4″-diCl BZT ([2]; pooled male rat liver microsomes, comparator values ref 26): 3.6 fold
Intrinsic Clearance (human CYP2C19; Human CYP 2C19 50 pmol/mL, 4 μM): 0.10 ± 0.01 (c) microliters per minute per picomole of P450
Substrate disappearance after 60 min incubation vs control (human CYP2C19; human CYP2C19, 10 μM, 50 pmol/mL P450, p < 0.05): statistically significant disappearance
Intrinsic Clearance (human CYP2E1; Human CYP 2E1 50 pmol/mL, 4 μM): 0.09 ± 0.02 (c,d) microliters per minute per picomole of P450
Substrate disappearance after 60 min incubation vs control (human CYP2E1; human CYP2E1, 10 μM, 50 pmol/mL P450, p < 0.05): statistically significant disappearance
Intrinsic Clearance (rat CYP2C11; Rat CYP 2C11 50 pmol/mL, 4 μM): 0.23 ± 0.01 (a) microliters per minute per picomole of P450
Substrate disappearance after 60 min incubation vs control (rat CYP2C11; rat CYP2C11, 10 μM, 50 pmol/mL P450, p < 0.05): statistically significant disappearance
Intrinsic clearance, fold lower than 4′,4″-diCl BZT (rat CYP2C11; rat CYP2C11, comparator values ref 26): 6.3 fold
Intrinsic Clearance (rat CYP2D1; Rat CYP 2D1 50 pmol/mL, 4 μM): 0.11 ± 0.02 (c) microliters per minute per picomole of P450
Substrate disappearance after 60 min incubation vs control (rat CYP2D1; rat CYP2D1, 10 μM, 50 pmol/mL P450, p < 0.05): statistically significant disappearance
Intrinsic Clearance (rat CYP3A1; Rat CYP 3A1 50 pmol/mL, 4 μM): 0.09 ± 0.02 (c,d) microliters per minute per picomole of P450
Substrate disappearance after 60 min incubation vs control (rat CYP3A1; rat CYP3A1, 10 μM, 50 pmol/mL P450, p < 0.05): statistically significant disappearance
brain-to-plasma partition coefficient (Ri) ([3]; 5 mg/kg i.v., AUC0–1440 min brain/plasma): 10.1
AUC0–1440 min (plasma) ([3]; 5 mg/kg i.v.): 141.8 µg·min/mL
maximal total brain concentration ([3]; 10 mg/kg i.v.): approximately 5 μg/g
brain-to-plasma partition coefficient (Ri) ([3]; 10 mg/kg i.v., AUC0–1440 min brain/plasma): 9.6
AUC0–1440 min (plasma) ([3]; 10 mg/kg i.v.): 258.0 µg·min/mL
Vss ([3]; Table 4, secondary parameter from NONMEM empirical Bayes estimates, i.v., rats): 622 mL/min/kg
signs of toxicity ([3]; i.v. 5 or 10 mg/kg): did not show any signs of toxicity
brain-to-plasma partition coefficient (Ri) ([3]; overall, dose not specified): ~ 10
CL [3, 5]: 1.34 (9.3) L/h/kg
Q [3, 5]: 7.8 (19.9) L/h/kg
Vc [3, 5]: 8.09 (13.6) L/kg
Vp [3, 5]: 27.9 (10.5) L/kg
t1/2 (elimination half-life) ([3]; secondary parameter from NONMEM empirical Bayes estimates, i.v., rats): 19.2 h
Ki (DAT): 56.4 ± 9.6 nM
Ki (SERT): 3870 ± 135 nM
Ki (NET): 2130 ± 160 nM
Ki (muscarinic M1 receptors): 4020 ± 592 nM
Ki (histamine H1 receptors): 218 ± 15.5 nM
IC50 (DA uptake): 20.7 ± 2.85 nM
